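All cell lines were grown in 96-well plates and treated with compound for 48 hours. Abbreviation: GI50, concentration required for 50% inhibition of growth.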 Active and inactive are the calls of the source. Cut-off read from the data, not from the text of the source: active = GI50 up to about 1.1 µM and inactive = higher.
Key:
Assay in all cases: inhibition of tumour cell growth, NCI panel, 48 h
NCI-H460 = system: NCI-H460
Malme-3M = system: Malme-3M
SN12C = system: SN12C
SR = system: SR
EKVX = system: EKVX
NCI-H23 = system: NCI-H23
HCT-116 = system: HCT-116
SF-268 = system: SF-268
A549 = system: A549
IGROV-1 = system: IGROV-1
SK-MEL-28 = system: SK-MEL-28
RPMI-8226 = system: RPMI-8226
NCI-H226 = system: NCI-H226
SK-OV-3 = system: SK-OV-3
OVCAR-4 = system: OVCAR-4
CAKI-1 = system: CAKI-1

COc1c(C)cc2c(c1O)C1NC(C2)[C@H](O)N2C3COC(=O)[C@@]4(CS[C@@H](c5c(OC(C)=O)c(C)c6c(c53)OCO6)C12)NCCC1=C4NC2C=CC=CC12 (some centres undefined)
GI50 (NCI-H460): < 0.01 µM (active) | GI50 (Malme-3M): < 0.01 µM (active) | GI50 (SN12C): < 0.01 µM (active) | GI50 (SR): < 0.01 µM (active) | GI50 (EKVX): < 0.01 µM (active) | GI50 (NCI-H23): < 0.01 µM (active) | GI50 (HCT-116): < 0.01 µM (active) | GI50 (SF-268): < 0.01 µM (active) | GI50 (A549): < 0.01 µM (active) | GI50 (IGROV-1): < 0.01 µM (active) | GI50 (SK-MEL-28): < 0.01 µM (active) | GI50 (RPMI-8226): < 0.01 µM (active) | GI50 (NCI-H226): < 0.01 µM (active)

Cc1ccc(S(=O)(=O)N2CCC2c2ccccc2)cc1 (centres undefined)
GI50 (NCI-H460): > 100 µM (inactive) | GI50 (Malme-3M): > 100 µM (inactive) | GI50 (SN12C): > 100 µM (inactive) | GI50 (EKVX): 64 µM (inactive) | GI50 (NCI-H23): 76.4 µM (inactive) | GI50 (SK-OV-3): > 100 µM (inactive) | GI50 (HCT-116): 52.8 µM (inactive) | GI50 (SF-268): 82.2 µM (inactive) | GI50 (A549): 67.5 µM (inactive) | GI50 (IGROV-1): > 100 µM (inactive) | GI50 (SK-MEL-28): > 100 µM (inactive) | GI50 (RPMI-8226): 66.2 µM (inactive) | GI50 (OVCAR-4): 46.6 µM (inactive) | GI50 (NCI-H226): 28.6 µM (inactive)

CC[P+](C)(Cc1ccccc1)c1ccccc1.O=C(OC(C(=O)[O-])C(OC(=O)c1ccccc1)C(=O)O)c1ccccc1 (centres undefined)
GI50 (Malme-3M): > 100 µM (inactive) | GI50 (SN12C): > 100 µM (inactive) | GI50 (EKVX): > 100 µM (inactive) | GI50 (CAKI-1): > 100 µM (inactive) | GI50 (NCI-H23): > 100 µM (inactive) | GI50 (SK-OV-3): > 100 µM (inactive) | GI50 (SF-268): > 100 µM (inactive) | GI50 (A549): > 100 µM (inactive) | GI50 (IGROV-1): > 100 µM (inactive) | GI50 (SK-MEL-28): > 100 µM (inactive) | GI50 (RPMI-8226): > 100 µM (inactive) | GI50 (OVCAR-4): > 100 µM (inactive)

O=c1c2ccccc2c2c3c1cccc3c1cccc3c(=O)c4ccccc4c2c31
GI50 (NCI-H460): > 100 µM (inactive) | GI50 (Malme-3M): > 100 µM (inactive) | GI50 (SN12C): > 100 µM (inactive) | GI50 (SR): > 100 µM (inactive) | GI50 (EKVX): > 100 µM (inactive) | GI50 (CAKI-1): > 100 µM (inactive) | GI50 (NCI-H23): > 100 µM (inactive) | GI50 (SK-OV-3): > 100 µM (inactive) | GI50 (HCT-116): > 100 µM (inactive) | GI50 (SF-268): > 100 µM (inactive) | GI50 (A549): > 100 µM (inactive) | GI50 (IGROV-1): > 100 µM (inactive) | GI50 (SK-MEL-28): > 100 µM (inactive) | GI50 (OVCAR-4): > 100 µM (inactive) | GI50 (NCI-H226): > 100 µM (inactive)

CC/C=C1\N=C(c2ccc(Cl)cc2)OC1=O
GI50 (NCI-H460): > 100 µM (inactive) | GI50 (Malme-3M): > 100 µM (inactive) | GI50 (SN12C): > 100 µM (inactive) | GI50 (EKVX): > 100 µM (inactive) | GI50 (CAKI-1): > 100 µM (inactive) | GI50 (NCI-H23): > 100 µM (inactive) | GI50 (SK-OV-3): > 100 µM (inactive) | GI50 (SF-268): > 100 µM (inactive) | GI50 (A549): > 100 µM (inactive) | GI50 (IGROV-1): > 100 µM (inactive) | GI50 (SK-MEL-28): > 100 µM (inactive) | GI50 (RPMI-8226): > 100 µM (inactive) | GI50 (OVCAR-4): > 100 µM (inactive) | GI50 (NCI-H226): > 100 µM (inactive)

COc1cc2ccnc(C#N)c2cc1OCc1ccccc1
GI50 (NCI-H460): > 100 µM (inactive) | GI50 (Malme-3M): > 100 µM (inactive) | GI50 (SN12C): > 100 µM (inactive) | GI50 (EKVX): > 100 µM (inactive) | GI50 (CAKI-1): > 100 µM (inactive) | GI50 (NCI-H23): > 100 µM (inactive) | GI50 (HCT-116): > 100 µM (inactive) | GI50 (SF-268): 39.2 µM (inactive) | GI50 (A549): > 100 µM (inactive) | GI50 (SK-MEL-28): > 100 µM (inactive) | GI50 (RPMI-8226): > 100 µM (inactive) | GI50 (OVCAR-4): 33.7 µM (inactive)

COc1ccc(C2=NC(C)(C)CO2)cc1
GI50 (NCI-H460): > 100 µM (inactive) | GI50 (Malme-3M): > 100 µM (inactive) | GI50 (SN12C): > 100 µM (inactive) | GI50 (SR): > 100 µM (inactive) | GI50 (EKVX): > 100 µM (inactive) | GI50 (CAKI-1): > 100 µM (inactive) | GI50 (NCI-H23): > 100 µM (inactive) | GI50 (HCT-116): > 100 µM (inactive) | GI50 (SF-268): > 100 µM (inactive) | GI50 (A549): > 100 µM (inactive) | GI50 (IGROV-1): > 100 µM (inactive) | GI50 (SK-MEL-28): > 100 µM (inactive) | GI50 (RPMI-8226): > 100 µM (inactive) | GI50 (OVCAR-4): > 100 µM (inactive)
